Measurements published in paper PMC11213902, “Enhancing hepatoprotective action: oxyberberine amorphous solid dispersion system targeting TLR4” (Scientific Reports, 2024).

Experiments:
[1] = In vitro dissolution study (paddle method); type: physicochemical; conditions: 0.3% SDS medium, 37 °C
Description: The dissolution Apparatus II (stirring paddle method) was utilized for the in vitro dissolution studies at a rotation speed of 100 ± 1 rpm in 250 mL 0.3% (w/v) sodium dodecyl sulfate (SDS) aqueous solution medium with a ZRS-8G dissolution tester (Tianjin Haiyida Technology Co., Ltd, Tianjin, China). All experiments were performed at 37 ± 0.5 °C. The OBB-ASDs samples were weighed to be equivalent to 2 mg of OBB. At predetermined time points (0, 5, 10, 20, 30, 60, and 90 min), 0.5 mL of sample solution was taken out and replaced with the same volume of fresh SDS solution (37 ± 0.5 °C). After being filtered through a 0.22 μm syringe filter, the filtered samples were collected and analyzed by HPLC.

[2] = In vivo oral bioavailability study; design: species or system SD rats; conditions: male, rat plasma OBB, 100 mg/kg, n = 6, mean ± SD
Description: Male SD rats weighing 220 ± 15 g were obtained from the Guangdong Medical Laboratory Animal Center (GDMLAC, Guangzhou, China). After fasting overnight, six rats were taken in each group, based on respective treatment at a dose of 100 mg/kg each: OBB-HPMCAS and OBB-SUS (OBB suspension). After isoflurane anesthesia, blood samples were collected from the posterior orbital venous plexus at 5, 10, 20, 30, 60, 90, 120, 180, 240, 360, 480, 720, and 1440 min, respectively. After centrifugation (12,000 rpm, 5 min), plasma was collected and stored at − 80 °C for further analysis. For deproteinization of plasma, ethyl acetate (200 μL) was added to the mixture and vortexed for 3 min. After centrifugation for […], the supernatant was collected and vacuum dried at 40 °C, − 0.8 Mpa. The residue was redissolved with 100 μL methanol/water (50:50, v/v). After centrifugation (12,000 rpm, 10 min), the supernatant was analyzed by LC–MS/MS system. Pharmacokinetic parameters were calculated based on the plasma pharmacokinetics of OBB. The peak concentration (Cmax), time of the peak concentration (Tmax), half-life (T1/2), and area under the profile from time 0 to 24 h (AUC0-24), were calculated using a DAS software (Version 2.0; Drug And Statistics, Shanghai, China, RRID: SCR_022672).

[3] = system: LPS/D-GalN-induced acute liver injury (ALI) mice; experiment: LPS/D-GalN-induced ALI, liver pathological changes (H&E); type: in vivo, C57BL/6 mice; conditions: gavage once daily 7 days; OBB-ASDs 25 and 50 mg/kg, OBB-SUS 50 mg/kg, Silymarin 100 mg/kg
Description: (§1) All mice were randomly divided into six groups (n = 8): normal control group (NC); LPS/D-GalN group; OBB-ASDs25 group (25 mg/kg OBB-HPMCAS); OBB-ASDs50 group (50 mg/kg OBB-HPMCAS); OBB-SUS group (50 mg/kg OBB suspension); Silymarin group (100 mg/kg Silymarin). The drug dosage design for the ALI trial was primarily based on our previous research findings[25] and preclinical experiments. Except for NC and LPS/D-GalN groups, all other groups of mice were respectively pretreated by gavage with the corresponding dose of OBB-ASDs, OBB-SUS, and Silymarin once daily for 7 consecutive days. Mice in NC and LPS/D-GalN group were given the same volume of saline by intragastric administration. At 2 h postdose, all mice (except the NC group) were exposed to 30 μg/kg LPS and 600 mg/kg D-GalN. Mice in NC group were received the same volume of PBS intraperitoneally. After challenging for 6 h, blood samples were collected from the eyeball vein under 2% sodium pentobarbital anesthesia. Subsequently, the liver was immediately dissected, weighed, washed with saline, and stored at − 80 °C until further analyzed.
Liver tissue pathology was evaluated by regular hematoxylin–eosin (H&E) staining. […] According to the scoring system, liver injury was evaluated by pathologists blinded to the experimental protocol. Scores were determined as Dkhil et al. previously described (Table 3)[26].

[4] = system: LPS/D-GalN-induced acute liver injury (ALI) mice; experiment: LPS/D-GalN-induced ALI, liver function analysis (serum ALT, AST); type: in vivo, C57BL/6 mice; conditions: gavage once daily 7 days; OBB-ASDs 25 and 50 mg/kg, OBB-SUS 50 mg/kg, Silymarin 100 mg/kg; P < 0.05
Description: as §1
After centrifugated at 3000 g for 10 min, serum was acquired and the activities of ALT and AST were measured using commercial kits (Nanjing Jiancheng, China) following the manufacturer’s instructions.

[5] = system: hepatic inflammatory mediators and oxidative stress in ALI mice; experiment: LPS/D-GalN-induced ALI, liver biochemical assessment (oxidative and inflammatory stress); type: in vivo, C57BL/6 mice
Description: as §1
Fresh liver tissues were homogenized in Tris–HCl buffer (pH 7.4) and centrifuged at 4500 rpm for 15 min (4 °C). Subsequently, the supernatants were collected and assayed for MDA, SOD, GSH, MCP-1, TNF-α, IL-1β, and IL-6 using its specific commercially available assay kit following the manufacturer’s instructions.

[6] = system: mRNA expression of TLR4, MyD88, IL-1β, and IL-6; experiment: LPS/D-GalN-induced ALI, quantitative PCR of liver tissues; type: in vivo, C57BL/6 mice; conditions: P < 0.01
Description: as §1, with “-” for “−”, “analyzed. […] Quantitative PCR was performed on an Applied Biosystems 7500 Real-Time system (ABI 7500, RRID: SCR_018051). Primer sequences against mouse cDNAs used in qPCR were listed as follows: TLR4, [NT] (reverse); MyD88, […] (reverse); IL-6, [NT] (reverse); IL-1β, [NT] (reverse); and GAPDH, […] (reverse).” for “analyzed.”

kidneys = experiment: Chronic nephrotoxicity assessment (kidney HE staining); type: in vivo, C57BL/6 mice; conditions: mice, oral, 50 mg/kg, continuous administration for 4, 8, and 16 weeks
Description: Male C57BL/6 mice were orally administered OBB and OBB-HPMCAS at a dose of 50 mg/kg for 16 weeks. Kidney tissues were collected at 4, 8, and 16 weeks for HE staining to observe the long-term effects of OBB administration on the kidneys.

[7] = Preliminary experiment: absorption and oral bioavailability; type: in vivo; conditions: pure OBB
[8] = system: ALI challenged by LPS/D-GalN; design: method as in PMID 35691465; conditions: previous research ref 8; cited from earlier work
[9] = system: non-alcoholic fatty liver disease (NAFLD); design: method as in PMID 33831691; conditions: cited from earlier work
[10] = design: method as in PMID 30599908; conditions: cited from earlier work
[11] = compared with the LPS/D-GalN group
[12] = pretreatment 7 days, OBB-ASDs 25 and 50 mg/kg, OBB-SUS 50 mg/kg, Silymarin 100 mg/kg, vs LPS/D-GalN group
[13] = higher in LPS/D-GalN challenged mice
[14] = qRT-PCR, elevation after LPS/D-GalN exposure

## COc1ccc2cc3n(c(=O)c2c1OC)CCc1cc2c(cc1-3)OCO2 [OBB, 8-Oxyberberine]
[1]
  release / dissolution rate, pure OBB compared with formulations: significantly slower
[2]
  Cmax: 169 ± 18.6 ng/mL
  Tmax: 4.67 ± 0.52 h
  half-life: 179 ± 25.2 min
[2]; read-out: AUC0-24
  AUC(0-t): 1260 ± 130 ng·h/mL
[3]
  liver tissue injury (H&E staining) vs model group: conspicuously mitigated
[4]
  serum ALT level vs LPS/D-GalN group: extremely reduced
  serum AST level vs LPS/D-GalN group: extremely reduced
[5]; [11]
  hepatic CAT content: increasing
  hepatic GSH content: increasing
  hepatic MDA level: dramatically suppressed
  hepatic SOD content: increasing
[5]; [12]
  IL-1β level in liver: largely decreased
  IL-6 level in liver: largely decreased
  MCP-1 level in liver: largely decreased
  TNF-α level in liver: largely decreased
[6]; [13]
  MyD88 mRNA expression (real-time PCR): restored
  TLR4 mRNA expression (real-time PCR): restored
[6]; [14]
  IL-1β mRNA expression level in liver: markedly restore
  IL-6 mRNA expression level in liver: markedly restore
kidneys
  kidney damage (HE staining): no significant kidney damage
[7]
  absorption and oral bioavailability: poor
[8]
  effect on ALI challenged by LPS/D-GalN: effectively attenuated
[9]
  effect on non-alcoholic fatty liver disease (NAFLD): pronounced therapeutic effect
[10]
  solubility in water: poorly soluble in water
